# Data from the supplement of paper PMC10307832.
# Compound: COc1cc2nc(N3CCCN(C)CC3)nc(NC3CCN(Cc4ccccc4)CC3)c2cc1OC + N=C(N)NC(=N)NCCc1ccccc1 [Phenformin] (partner 250 µM)
# Test: relative viability (nuclei count vs DMSO), 5 days (fraction); higher = more cells survive
# Conditions: first compound 6.325 µM
# How it was run: (§1)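 Lung cancer cell lines were seeded in 1536-well plates and dosed by pin tool the next day, with either a single drug or a fixed anchor-drug dose combined with five library-drug doses (not always all listed) spaced in √10 steps. Five days later, one step fixed the cells and stained their nuclei (final 0.05% Triton X-100, 1% formaldehyde, 1 ug/ml Hoechst), and nuclei were counted on 4× images. Relative viability is the nuclei count in treated wells divided by the count in vehicle wells, and each value is the median of duplicate plates.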
row,Cell Line,relative viability
1,EMC-BAC-2,0.523
2,NCI-H2085,0.641
3,HCC-366,0.639
4,NCI-H1666,0.505
5,NCI-H596,0.798
6,LK-2,0.311
7,NCI-H2087,0.393
8,SK-MES-1,0.541
9,H3255,0.344
10,COR-L23,0.398
11,COR-L 105,0.343
12,LOU-NH91,0.674
13,ChaGo-K-1,0.498
14,NCI-H2170,0.387
15,NCI-H2405,0.371
16,HOP-62,0.641
17,HCC-44,0.27
18,A549,0.146
19,NCI-H522,0.745
20,LU99A,0.857
21,BEN,0.276
22,NCI-H1563,0.666

# Compound: COc1cc2nc(N3CCCN(C)CC3)nc(NC3CCN(Cc4ccccc4)CC3)c2cc1OC + CC(=O)c1c(C)c2cnc(Nc3ccc(N4CCNCC4)cn3)nc2n(C2CCCC2)c1=O [Palbociclib] (partner 0.5 µM)
# Test: as above
# Conditions: first compound 0.2 µM
# How it was run: as §1
row,Cell Line,relative viability
1,NCI-H2342,0.521
2,NCI-H727,0.617
3,NCI-H1650,0.243
4,NCI-H1993,0.582
5,SW 1573,0.365
6,NCI-H838,0.185
7,LCLC-103H,0.479
8,NCI-H520,0.168
9,NCI-H2126,0.373
10,EMC-BAC-2,0.525
11,NCI-H2085,0.455
12,HCC-366,0.373
13,NCI-H1666,0.644
14,LK-2,0.658
15,NCI-H2087,0.233
16,SK-MES-1,0.319
17,H3255,0.312
18,COR-L23,0.34
19,COR-L 105,0.375
20,LOU-NH91,0.464
21,ChaGo-K-1,0.883
22,NCI-H2170,0.383
23,NCI-H2405,0.554
24,HOP-62,0.436
25,HCC-44,0.956
26,NCI-H522,0.716
27,LU99A,0.379
28,BEN,0.437

# Same assay, conditions: first compound 0.6325 µM
row,Cell Line,relative viability
1,NCI-H2342,0.58
2,NCI-H727,0.656
3,NCI-H1650,0.448
4,NCI-H1993,0.721
5,SW 1573,0.417
6,NCI-H838,0.229
7,LCLC-103H,0.47
8,NCI-H520,0.259
9,NCI-H2126,0.325
10,EMC-BAC-2,0.472
11,NCI-H2085,0.484
12,HCC-366,0.404
13,NCI-H1666,0.633
14,LK-2,0.884
15,NCI-H2087,0.201
16,NCI-H1648,0.293
17,SK-MES-1,0.304
18,H3255,0.316
19,COR-L23,0.266
20,COR-L 105,0.398
21,LOU-NH91,0.424
22,ChaGo-K-1,0.979
23,NCI-H2170,0.406
24,NCI-H2405,0.493
25,HOP-62,0.386
26,HCC-44,0.951
27,NCI-H522,1.18
28,LU99A,0.38
29,BEN,0.471

# Same assay, conditions: first compound 2 µM
row,Cell Line,relative viability
1,NCI-H2342,0.549
2,NCI-H727,0.571
3,NCI-H1650,0.328
4,NCI-H1993,0.77
5,SW 1573,0.377
6,NCI-H838,0.213
7,LCLC-103H,0.452
8,NCI-H520,0.25
9,NCI-H2126,0.367
10,EMC-BAC-2,0.517
11,NCI-H2085,0.5
12,HCC-366,0.396
13,NCI-H1666,0.648
14,LK-2,0.841
15,NCI-H2087,0.219
16,SK-MES-1,0.295
17,H3255,0.327
18,COR-L23,0.362
19,COR-L 105,0.364
20,LOU-NH91,0.588
21,ChaGo-K-1,0.933
22,NCI-H2170,0.37
23,NCI-H2405,0.522
24,HOP-62,0.506
25,HCC-44,0.995
26,NCI-H522,0.859
27,LU99A,0.371
28,BEN,0.473

# Same assay, conditions: first compound 6.325 µM
row,Cell Line,relative viability
1,NCI-H2342,0.527
2,NCI-H727,0.632
3,NCI-H1650,0.287
4,NCI-H1993,0.748
5,SW 1573,0.196
6,NCI-H838,0.212
7,LCLC-103H,0.444
8,NCI-H520,0.148
9,NCI-H2126,0.328
10,EMC-BAC-2,0.546
11,NCI-H2085,0.458
12,HCC-366,0.409
13,NCI-H1666,0.633
14,LK-2,0.598
15,NCI-H2087,0.215
16,NCI-H1648,0.272
17,SK-MES-1,0.106
18,H3255,0.3
19,COR-L23,0.265
20,COR-L 105,0.396
21,LOU-NH91,0.552
22,ChaGo-K-1,0.902
23,NCI-H2170,0.352
24,NCI-H2405,0.514
25,HOP-62,0.491
26,HCC-44,0.956
27,NCI-H522,0.915
28,LU99A,0.412
29,BEN,0.476

# Compound: COc1cc2nc(N3CCCN(C)CC3)nc(NC3CCN(Cc4ccccc4)CC3)c2cc1OC + COc1cccc2cc(-c3nc([C@H]4CC[C@H](C(=O)O)CC4)n4ncnc(N)c34)[nH]c12 [OSI-027] (partner 0.5 µM)
# Test: as above
# Conditions: first compound 0.2 µM
# How it was run: as §1
row,Cell Line,relative viability
1,NCI-H2342,0.677
2,NCI-H1623,0.443
3,NCI-H727,0.511
4,NCI-H1650,0.602
5,NCI-H1993,0.534
6,SW 1573,0.564
7,NCI-H838,0.433
8,LCLC-103H,0.454
9,NCI-H520,0.315
10,NCI-H2126,0.769
11,EMC-BAC-2,0.361
12,NCI-H2085,0.742
13,HCC-366,0.92
14,NCI-H1666,0.816
15,NCI-H596,0.771
16,LK-2,0.197

row,Cell Line,relative viability
1,NCI-H2087,0.469
2,NCI-H1648,0.258
3,SK-MES-1,0.61
4,H3255,0.513
5,COR-L23,0.882
6,COR-L 105,0.534
7,LOU-NH91,0.75
8,ChaGo-K-1,0.572
9,NCI-H2170,0.802
10,NCI-H2405,0.717
11,HOP-62,0.812
12,HCC-44,0.604
13,NCI-H522,0.654
14,LU99A,0.319
15,BEN,0.317
16,NCI-H1563,0.748

# Same assay, conditions: first compound 0.6325 µM
row,Cell Line,relative viability
1,NCI-H2342,0.574
2,NCI-H1623,0.472
3,NCI-H727,0.68
4,NCI-H1650,0.857
5,NCI-H1993,0.57
6,SW 1573,0.787
7,NCI-H838,0.429
8,LCLC-103H,0.564
9,NCI-H520,0.269
10,NCI-H2126,0.794
11,EMC-BAC-2,0.353
12,NCI-H2085,0.788
13,HCC-366,0.944
14,NCI-H1666,0.877
15,NCI-H596,0.786
16,LK-2,0.221

row,Cell Line,relative viability
1,NCI-H2087,0.428
2,NCI-H1648,0.318
3,SK-MES-1,0.56
4,H3255,0.534
5,COR-L23,0.735
6,COR-L 105,0.882
7,LOU-NH91,0.761
8,ChaGo-K-1,0.604
9,NCI-H2170,0.711
10,NCI-H2405,0.677
11,HOP-62,0.845
12,HCC-44,0.571
13,NCI-H522,0.755
14,LU99A,0.292
15,BEN,0.28
16,NCI-H1563,0.713

# Same assay, conditions: first compound 2 µM
row,Cell Line,relative viability
1,NCI-H2342,0.785
2,NCI-H1623,0.444
3,NCI-H727,0.535
4,NCI-H1650,0.519
5,NCI-H1993,0.529
6,SW 1573,0.551
7,NCI-H838,0.362
8,LCLC-103H,0.537
9,NCI-H520,0.212
10,NCI-H2126,0.693
11,EMC-BAC-2,0.39
12,NCI-H2085,0.72
13,HCC-366,0.398
14,NCI-H1666,0.757
15,NCI-H596,0.866
16,LK-2,0.196

row,Cell Line,relative viability
1,NCI-H2087,0.547
2,NCI-H1648,0.313
3,SK-MES-1,0.536
4,H3255,0.587
5,COR-L23,0.802
6,COR-L 105,0.487
7,LOU-NH91,0.625
8,ChaGo-K-1,0.564
9,NCI-H2170,0.695
10,NCI-H2405,0.671
11,HOP-62,0.826
12,HCC-44,0.576
13,NCI-H522,0.74
14,LU99A,0.26
15,BEN,0.288
16,NCI-H1563,0.773

# Same assay, conditions: first compound 6.325 µM
row,Cell Line,relative viability
1,NCI-H2342,0.692
2,NCI-H1623,0.444
3,NCI-H727,0.565
4,NCI-H1650,0.555
5,NCI-H1993,0.553
6,SW 1573,0.254
7,NCI-H838,0.375
8,LCLC-103H,0.449
9,NCI-H520,0.234
10,NCI-H2126,0.662
11,EMC-BAC-2,0.397
12,NCI-H2085,0.584
13,HCC-366,0.747
14,NCI-H1666,0.859
15,NCI-H596,0.667
16,LK-2,0.214

row,Cell Line,relative viability
1,NCI-H2087,0.452
2,NCI-H1648,0.275
3,SK-MES-1,0.218
4,H3255,0.692
5,COR-L23,0.765
6,COR-L 105,0.554
7,LOU-NH91,0.74
8,ChaGo-K-1,0.501
9,NCI-H2170,0.682
10,NCI-H2405,0.66
11,HOP-62,0.819
12,HCC-44,0.586
13,NCI-H522,0.499
14,LU99A,0.278
15,BEN,0.244
16,NCI-H1563,0.729
